Measurements as given in patent US4015974A, “Amido phosphorothiolates” (priority 1972, dated 1977).

How the values were obtained:
Format in all cases: in vivo
[1] = test system: barnyard grass (Echinochloa crus-galli); test: Pre-emergence application, herbicidal effect on barnyard grass (Table 1); set-up: key: 0: not damaged; 5: completely killed; conditions: 20 days after application, score 0-5
Procedure, shortened: (§1)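 Scores run from 0 (undamaged) to 5 (fully killed), read 20 days post-treatment. Compounds were applied as water-diluted wettable powders to soil over freshly covered seeds in ~10 cm pots, with plants kept in a greenhouse.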

[2] = test system: large crabgrass (Digitaria sanguinalis); test: Pre-emergence application, herbicidal effect on large crabgrass (Table 1); set-up: key: 0: not damaged; 5: completely killed; conditions: 20 days after application, score 0-5
Procedure, shortened: as §1

radish = test: Pre-emergence application, herbicidal effect on radish (Table 1); set-up: key: 0: not damaged; 5: completely killed; conditions: 20 days after application, score 0-5
Procedure, shortened: as §1

[3] = test system: redroot pigweed (Amaranthus retroflexus); test: Pre-emergence application, herbicidal effect on redroot pigweed (Table 1); set-up: key: 0: not damaged; 5: completely killed; conditions: 20 days after application, score 0-5
Procedure, shortened: as §1

[4] = test system: common purslane (Portulaca oleracea); test: Pre-emergence application, herbicidal effect on common purslane (Table 1); set-up: key: 0: not damaged; 5: completely killed; conditions: 20 days after application, score 0-5
Procedure, shortened: as §1

[5] = test system: common lambsquarter (Chenopodium album); test: Pre-emergence application, herbicidal effect on common lambsquarter (Table 1); set-up: key: 0: not damaged; 5: completely killed; conditions: 20 days after application, score 0-5
Procedure, shortened: as §1

rice = test: Water application, phytotoxicity on rice (Table 2); set-up: key: 0: no effect; 1: very slightly affected; 2: slightly affected; 3: moderately affected; 4: considerably affected; 5: completely killed; conditions: 25 days, score 0-5
Procedure, shortened: (§2)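 Scores (0–5) taken 25 days post-treatment. Wettable-powder formulations were applied into standing water over paddy soil holding 3-leaf-stage transplanted rice, sown Echinochloa and naturally emerging monochoria, false pimpernel and toothcup.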

[6] = test system: barnyard grass (Echinochloa crus-galli); test: Water application, herbicidal effect on barnyard grass (Table 2); set-up: key: 0: not damaged; 5: completely killed; conditions: 25 days, score 0-5
Procedure, shortened: as §2

[7] = test system: broad-leaved weeds, e.g., monochoria, false pimpernel and toothcup; test: Water application, herbicidal effect on broad-leaved weeds (Table 2); set-up: key: 0: not damaged; 5: completely killed; conditions: 25 days, score 0-5
Procedure, shortened: as §2

[8] = test system: broad-leaved weeds, e.g., monochoria, false pimpernel and toothcup; test: as above; set-up: key: 0: no effect; 1: very slightly affected; 2: slightly affected; 3: moderately affected; 4: considerably affected; 5: completely killed; conditions: 10 g/a, 25 days, score 0-5
Description: Wagner pots of 14 cm. in diameter, which had been packed with 1.5 kg. of paddy field soil, were brought into the state of paddy fields. To the pots were transplanted rice seedlings at the 3-leave stage. Further, seeds of barnyard grass (Echinochloa crus-galli) were sowed in the pots and required amounts of test compounds were applied to the soil under water lodged condition. 25 days after application, the degrees of herbicidal activity and phytotoxity were investigated on above-mentioned plants which had been transplanted and sowed, and on broad-leaved weeds, e.g., monochoria (Monochoria viaginalis Presl.), false pimpernel (Linderna pyxidaria) and toothcup (Rotala indica Koehue), which had been spontaneously germinated. The test compounds were used in the form of wettable powder. The herbicidal effects and the phytotoxity were evaluated as follows by the numerals ranging from 0 to 5.

nematode = test: Effect on nematode (Table 7); set-up: tested at 500 ppm; conditions: 500 p.p.m., 24 hours
Procedure: 0.5 ml. of a nematode-containing aqueous solution separated from food according to Baermann's method was placed in a test tube with ground stopper containing 0.5 ml. of an aqueous dilute solution of each emulsifiable concentrates of the present compounds. The concentration of the active ingredient in the mixture was adjusted to 500 p.p.m. After 24 hours, the death and alive were observed microscopically to calculate the mortality.

Structure (SMILES)	Herbicidal effect, barnyard grass ([1]; 10 g./a.)	Herbicidal effect, barnyard grass ([1]; 20 g./a.)	Herbicidal effect, barnyard grass ([1]; 40 g./a.)	Herbicidal effect, large crabgrass ([2]; 10 g./a.)	Herbicidal effect, large crabgrass ([2]; 20 g./a.)	Herbicidal effect, large crabgrass ([2]; 40 g./a.)	Herbicidal effect, radish (radish; 10 g./a.)	Herbicidal effect, radish (radish; 20 g./a.)	Herbicidal effect, radish (radish; 40 g./a.)	Herbicidal effect, redroot pigweed ([3]; 10 g./a.)	Herbicidal effect, redroot pigweed ([3]; 20 g./a.)	Herbicidal effect, redroot pigweed ([3]; 40 g./a.)	Herbicidal effect, common purslane ([4]; 10 g./a.)	Herbicidal effect, common purslane ([4]; 20 g./a.)	Herbicidal effect, common purslane ([4]; 40 g./a.)	Herbicidal effect, common lambsquarter ([5]; 10 g./a.)	Herbicidal effect, common lambsquarter ([5]; 20 g./a.)	Herbicidal effect, common lambsquarter ([5]; 40 g./a.)	Phytotoxicity on rice (rice; 10 g/a)	Phytotoxicity on rice (rice; 20 g/a)	further results
CCCOP(=O)(SCC(=O)N1CCCCC1C)SC(C)C (stereo not drawn) [Compound 36]	4	4	5	4	4	5	0	0	0	3	4	4	3	4	4	4	4	5	0	0	Phytotoxicity on rice (rice; 40 g/a): 0; Herbicidal effects, barnyard grass ([6]; 10 g/a): 5; Herbicidal effects, barnyard grass ([6]; 20 g/a): 5; Herbicidal effects, barnyard grass ([6]; 40 g/a): 5; Herbicidal effects, broad-leaved weeds ([7]; 20 g/a): 5; Herbicidal effects, broad-leaved weeds ([7]; 40 g/a): 5; Herbicidal effects, broad-leaved weeds [8]: 4
C#CCSP(=O)(OCC)SCC(=O)N1CCCCC1C (stereo not drawn) [Compound 33]	–	–	–	–	–	–	–	–	–	–	–	–	–	–	–	–	–	–	–	–	Mortality (nematode): 100%
CCCCSP(=O)(OCCC)SCC(=O)N1CCCCC1C (stereo not drawn) [Compound 17]	4	4	5	4	5	5	0	0	0	3	4	4	3	4	4	4	4	5	0	0	Phytotoxicity on rice (rice; 40 g/a): 0; Herbicidal effects, barnyard grass ([6]; 10 g/a): 5; Herbicidal effects, barnyard grass ([6]; 20 g/a): 5; Herbicidal effects, barnyard grass ([6]; 40 g/a): 5; Herbicidal effects, broad-leaved weeds ([7]; 20 g/a): 5; Herbicidal effects, broad-leaved weeds ([7]; 40 g/a): 5; Herbicidal effects, broad-leaved weeds [8]: 4
ClC=CCCl [Dichloropropene, reference compound]	–	–	–	–	–	–	–	–	–	–	–	–	–	–	–	–	–	–	–	–	Mortality (nematode): 79.3%
CCCSP(=O)(OCC)SCC(=O)N1CCC(C)CC1 (stereo not drawn) [Compound 12]	5	5	5	5	5	5	0	0	0	4	5	5	5	5	5	5	5	5	0	0	Phytotoxicity on rice (rice; 40 g/a): 0; Mortality (nematode): 100%; Herbicidal effects, barnyard grass ([6]; 10 g/a): 5; Herbicidal effects, barnyard grass ([6]; 20 g/a): 5; Herbicidal effects, barnyard grass ([6]; 40 g/a): 5; Herbicidal effects, broad-leaved weeds ([7]; 10 g/a): 5; Herbicidal effects, broad-leaved weeds ([7]; 20 g/a): 5; Herbicidal effects, broad-leaved weeds ([7]; 40 g/a): 5
CCOP(=O)(SCC(=O)N1CCCCC1C)SCc1ccc(C)cc1 (stereo not drawn) [Compound 52]	5	5	5	5	5	5	0	0	0	4	4	5	3	4	5	3	4	5	0	0	Phytotoxicity on rice (rice; 40 g/a): 0; Mortality (nematode): 85.7%; Herbicidal effects, barnyard grass ([6]; 10 g/a): 5; Herbicidal effects, barnyard grass ([6]; 20 g/a): 5; Herbicidal effects, barnyard grass ([6]; 40 g/a): 5; Herbicidal effects, broad-leaved weeds ([7]; 10 g/a): 5; Herbicidal effects, broad-leaved weeds ([7]; 20 g/a): 5; Herbicidal effects, broad-leaved weeds ([7]; 40 g/a): 5
CCCOP(=O)(SCCc1ccccc1)SCC(=O)N1CCCCC1CC (stereo not drawn) [Compound 19]	4	4	5	4	4	5	0	0	0	4	4	4	4	4	4	3	4	4	0	0	Phytotoxicity on rice (rice; 40 g/a): 0; Herbicidal effects, barnyard grass ([6]; 10 g/a): 5; Herbicidal effects, barnyard grass ([6]; 20 g/a): 5; Herbicidal effects, barnyard grass ([6]; 40 g/a): 5; Herbicidal effects, broad-leaved weeds ([7]; 20 g/a): 5; Herbicidal effects, broad-leaved weeds ([7]; 40 g/a): 5; Herbicidal effects, broad-leaved weeds [8]: 4
CCOP(=O)(SCC(=O)N1CCCC(C)C1)SCC(C)C (stereo not drawn) [Compound 28]	–	–	–	–	–	–	–	–	–	–	–	–	–	–	–	–	–	–	–	–	Mortality (nematode): 100%
C=C(Cl)CSP(=O)(OCC)SCC(=O)N1CCCCC1CC (stereo not drawn) [Compound 82]	5	5	5	5	5	5	0	0	1	4	4	5	3	4	5	4	4	5	0	0	Phytotoxicity on rice (rice; 40 g/a): 2; Herbicidal effects, barnyard grass ([6]; 10 g/a): 5; Herbicidal effects, barnyard grass ([6]; 20 g/a): 5; Herbicidal effects, barnyard grass ([6]; 40 g/a): 5; Herbicidal effects, broad-leaved weeds ([7]; 10 g/a): 5; Herbicidal effects, broad-leaved weeds ([7]; 20 g/a): 5; Herbicidal effects, broad-leaved weeds ([7]; 40 g/a): 5
CCOP(=O)(SCC(=O)N1CCCCC1CC)SCc1ccc(Br)cc1 (stereo not drawn) [Compound 57]	–	–	–	–	–	–	–	–	–	–	–	–	–	–	–	–	–	–	–	–	Mortality (nematode): 91.0%
